According to US9040261B2, “Compounds as L-cystine crystallization inhibitors and uses thereof” (NEW YORK UNIVERSITY, priority 2009, dated 2015):
Entries after “also recorded” stand apart in the source; their conditions may differ.

Experiments:
[1] = Crystal size and habit by optical microscopy and SEM after bulk crystallization with additive
Experimental: Various proteins, poly-amino acids, and molecular mimics of L-cystine were examined as additives. The aforementioned procedure for hexagonal platelet crystallization was repeated. Following the 75 min cooling period, prior to any observable crystallization, the additive was added to the supersaturated L-cystine solution to the desired concentration. The container was sealed and stored for 72 hours at room temperature without stirring, after which the precipitate was collected by vacuum filtration (Whatman Grade 1 filters, >11 μm pores) and were air dried prior to analysis. Crystallization without additive was performed in an identical manner for comparison using a control solution from the same batch. The mass yields of L-cystine crystals were obtained by dividing the mass of L-cystine crystals (collected from growth solution by filtration) by the mass of L-cystine added in the growth solution. The crystals were isolated with 11 μm-pore filters, which were regarded as sufficiently small for reliable capture of the crystals (optical micrographs reveal that the size of crystals was always greater than 50 μm
An Orion 3 Star pH meter (Thermo Electron Corp.) with Orion 9157BNMD probe was used to measure the pH of L-cystine solutions. Crystal morphology was measured with a Leitz ERGOLUZ optical microscope and a Hitachi 3500 scanning electron microscopy. A thin coating of gold (2 nm) was sputtered on SEM samples and images were acquired at low voltage (2-5 kV) to minimize sample melting. ^1H NMR spectra were recorded using a Bruker AVANCE 400 spectrometer and were routinely run using broadband decoupling. Chemical shifts (δ), expressed in ppm, are referenced to the corresponding residual nuclei in deuterated solvent (D2O). Powder X-ray diffraction (XRD) patterns of isolated crystals were acquired with a Panalytical XPert PRO MPD using a Bragg-Brentano geometry with fixed slits at power settings of 45 kV and 40 mA. A CuKa radiation (0.154 nm) source was used with a 1 degree fixed divergence slit (10 mm beam mask) for incident X-rays and a 1 degree anti-scatter slit Ni filter ( 1/16 degree receiving slit) for diffracted X-rays.

[2] = Real time in situ AFM step velocity measurements, static conditions
Experimental: A Digital Instruments (Santa Barbara, Calif.) Nanoscope IIIa Multimode system was used for topographical and lattice imaging. All measurements were performed in contact mode using Veeco NP_B Si3N4 cantilever tips with a spring constant of 0.12N/m (triangular, 196 μm length, 41 μm width) on a glass cantilever holder, and a liquid cell was created for in situ step velocity measurements. All L-cystine crystals for AFM measurements were prepared by method 1. Crystals were transferred onto an AFM specimen disk coated with partially cured (1 hr) UV-curable optical cement (Type SK-9, EMS Acquisition Corp.) by gently pressing the disk against hexagonal platelets or L-cystine needles isolated by filtration (Whatman Nuclepore membrane, 8 μm). The (0001) face of hexagonal platelets was exposed normal to the disk for AFM analysis with growth occurring along equivalent {1010} faces in the lateral directions, while the sides of L-cystine needles were exposed normal to the disc. The partially cured polymer with adhered crystals was completely cured by additional UV radiation (2 hrs) prior to analysis. Measurements of individual step heights for hexagonal L-cystine crystals were acquired in air (contact mode) at a scan rate of 1.00 Hz and 256 samples per line over a 15×15 μm^2 surface area. Integral and proportional gains were set to the highest possible values without obtaining feedback. Four hexagonal crystals (5 areas per crystal) were analyzed for statistical step height distributions, which were calculated from >10^3 individual steps. Lattice-resolved images of crystal surfaces were acquired in water (contact mode) using a scan rate of 112 Hz over a 12×12 nm^2 area.
Real time in situ step velocity measurements of L-cystine growth were assessed along six structurally-equivalent {1010} faces of the hexagonal structure. A liquid cell was created with the glass cantilever tip holder, and working solutions were injected through a 1-mL syringe. Prior to injecting the growth medium (i.e. supersaturated L-cystine solution), crystals were etched with deionized water in the fluid cell for one hour to remove amorphous deposits or impurities that may be present on the surface. Supersaturated solutions (0.5 g/L) were generated by adding L-cystine to deionized water, boiling the solution on a heating mantle for 20 min to completely dissolve the solute, and allowing the solution to cool for 20 min on the heating mantle before transferring the solution (via syringe) to the AFM fluid cell. […]
The effect of additives on crystal growth rates was investigated. […] For each measurement, growth was first assessed in the absence of additive, then in the presence of additive on the identical area of the crystal surface to analyze relative changes in step velocity. […]

[3] = dosages between 100 mg/L and 20 g/L per day; ATP, reactive oxygen species levels, cell viability; cited from earlier work

COC(=O)[C@@H](N)CSSC[C@H](N)C(=O)OC.Cl.Cl [CDME, Cystine Dimethyl Ester Dihydrochloride]
needle volume less than hexagonal platelets [1]: ~100 times | size of hexagonal platelets ([1]; 1.7 mg/L CDME, 700 mg/L L-cystine, without additive 200-400 μm): 50-100 μm | number of needles collected ([1]; 25 mg/L (3 wt %) CDME, Dihydrochloride): negligible; also recorded: Trace number of needles | advancement of higher {1010} steps ([2]; 5.0 g/L CDME, 0.5 g/L L-cystine, step heights >0.6 nm, larger than 1 nm, Dihydrochloride): suppresses; also recorded: completely suppressed | Step velocity of 1-nm steps ([2]; large excess of CDME (5 g/L), 29 nm/min in the absence of additive): 7 nm/min | toxicity in cell culture and in vivo animal studies [3]: possible adverse affects
